Assays:
Cytochrome P450 3A4 = Cytochrome P450 3A4 (Homo sapiens, UniProt P08684); experiment: Inhibition of CYP3A4 after 30 mins; format: ADME
[1] = Inhibition of gamma-secretase-mediated amyloid beta-40 production
[2] = AUC (0 to 6 hrs) in rat at 10 mg/kg, po; format: ADME, organism-based; design: time < 6 hr, dose 10 mg/kg, route oral; conditions: plasma

Cytochrome P450 3A4, sequence (P08684 whole entry): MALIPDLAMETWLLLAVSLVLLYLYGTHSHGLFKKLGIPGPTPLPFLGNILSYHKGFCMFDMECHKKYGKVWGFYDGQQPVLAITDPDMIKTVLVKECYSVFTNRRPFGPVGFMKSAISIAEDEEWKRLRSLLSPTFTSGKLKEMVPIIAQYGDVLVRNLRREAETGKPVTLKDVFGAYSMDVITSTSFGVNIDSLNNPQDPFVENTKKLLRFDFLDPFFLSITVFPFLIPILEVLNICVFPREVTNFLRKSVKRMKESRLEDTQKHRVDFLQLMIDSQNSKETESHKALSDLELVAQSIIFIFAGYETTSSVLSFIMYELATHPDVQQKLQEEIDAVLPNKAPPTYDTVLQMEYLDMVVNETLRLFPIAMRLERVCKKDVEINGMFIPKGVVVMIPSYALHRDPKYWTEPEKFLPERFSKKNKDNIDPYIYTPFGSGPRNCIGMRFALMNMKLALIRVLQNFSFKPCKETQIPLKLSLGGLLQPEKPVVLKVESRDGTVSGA

Row | Compound | IC50 (Cytochrome P450 3A4) | IC50 [1] | AUC(0-t) at 6 h [2]
1 | CC(C)[C@@H]1COC[C@H](C2(OC(=O)N3CC[C@@H](O)C3)CC2)N1S(=O)(=O)c1ccc(Cl)cc1 | 13600 nM | 18.9 nM | 0.036 µM·h
2 | CC(C)[C@@H]1COC[C@H](C2(OC(=O)N3CC[C@H](O)C3)CC2)N1S(=O)(=O)c1ccc(Cl)cc1 | 30000 nM | 17 nM | 
3 | CC(C)[C@@H]1COC[C@H](C2(OC(=O)N3CCNCC3)CC2)N1S(=O)(=O)c1ccc(Cl)cc1 | 300 nM | 14.5 nM | 3.93 µM·h
4 | CC1([C@@H]2COC[C@H](COC(=O)N3CCC(CO)CC3)N2S(=O)(=O)c2ccc(Cl)cc2)CC1 | 5500 nM | 131 nM | 
5 | O=C(OC1([C@H]2COC[C@@H](CC3CC3)N2S(=O)(=O)c2ccc(Cl)cc2)CC1)N1CC2CCC(C1)N2 | 800 nM | 0.8 nM | 4.58 µM·h
6 | CC(=O)N1C2CCC1CN(C(=O)OC1([C@H]3COC[C@@H](CC4CC4)N3S(=O)(=O)c3ccc(Cl)cc3)CC1)C2 | > 30000 nM | 4.4 nM | 0.013 µM·h
7 | CCNC(=O)N1C2CCC1CN(C(=O)OC1([C@H]3COC[C@@H](CC4CC4)N3S(=O)(=O)c3ccc(Cl)cc3)CC1)C2 | > 30000 nM | 5.5 nM | 0.06 µM·h
8 | O=C(OC1([C@H]2COC[C@@H](CC3CC3)N2S(=O)(=O)c2ccc(Cl)cc2)CC1)N1CC2CC1CN2CCO (stereo partly specified) | 3200 nM | 3.6 nM | 1.35 µM·h
9 | C[C@@H]1CN(C(=O)OC2([C@H]3COC[C@@H](CC4CC4)N3S(=O)(=O)c3ccc(Cl)cc3)CC2)C[C@H](C)N1CCO | 2000 nM | 11.6 nM | 1.23 µM·h
10 | CN1CCN(C(=O)OC2([C@H]3COC[C@@H](CC4CC4)N3S(=O)(=O)c3ccc(Cl)cc3)CC2)CC1=O | 1400 nM | 5.7 nM | 1.02 µM·h
11 | CN1CCC12CCN(C(=O)OC1([C@H]3COC[C@@H](CC4CC4)N3S(=O)(=O)c3ccc(Cl)cc3)CC1)CC2 | 30000 nM | 2.6 nM | 0.894 µM·h

More lines, now with the values ahead:

Row | IC50 (Cytochrome P450 3A4) | IC50 [1] | AUC(0-t) at 6 h [2] | Compound
12 | 500 nM | 2 nM | 4.97 µM·h | CC(C)[C@@H]1COC[C@H](C2(OC(=O)N3CC4CCC(C3)N4)CC2)N1S(=O)(=O)c1ccc(Cl)cc1
13 | 13800 nM | 6.5 nM |  | CC(C)[C@@H]1COC[C@H](C2(OC(=O)N3CCC(CO)CC3)CC2)N1S(=O)(=O)c1ccc(Cl)cc1
14 | 6400 nM | 9.3 nM | 1.12 µM·h | CC(C)[C@@H]1COC[C@H](C2(OC(=O)N3CC4CNCC4C3)CC2)N1S(=O)(=O)c1ccc(Cl)cc1 (stereo partly specified)
15 | 23800 nM | 34.7 nM |  | CC(C)(C)[C@@H]1COC[C@H](COC(=O)N2CCN(C(C)(C)CO)CC2)N1S(=O)(=O)c1ccc(Cl)cc1
16 | 7100 nM | 108 nM |  | CC(C)(C)[C@@H]1COC[C@H](COC(=O)N2CCC(CO)CC2)N1S(=O)(=O)c1ccc(Cl)cc1
17 | 1500 nM | 20.4 nM |  | CC1([C@@H]2COC[C@H](COC(=O)N3CCC(N4CCCCC4)CC3)N2S(=O)(=O)c2ccc(Cl)cc2)CC1
18 | 500 nM | 39.3 nM |  | CC1([C@@H]2COC[C@H](COC(=O)N3CCN(C(C)(C)CO)CC3)N2S(=O)(=O)c2ccc(Cl)cc2)CC1
19 | 2300 nM | 0.9 nM | 1.28 µM·h | O=C(OC1([C@H]2COC[C@@H](CC3CC3)N2S(=O)(=O)c2ccc(Cl)cc2)CC1)N1CC2CCC(C1)N2CCO
20 | > 30000 nM | 29.3 nM |  | CC[C@H]1CN(C(C)=O)[C@H](C)CN1C(=O)OC1([C@H]2COC[C@@H](CC3CC3)N2S(=O)(=O)c2ccc(Cl)cc2)CC1
21 | > 30000 nM | 27.6 nM | 0.077 µM·h | CC(C)(CO)N1CCN(C(=O)OC2([C@H]3COC[C@@H](CC4CC4)N3S(=O)(=O)c3ccc(Cl)cc3)CC2)CC1
22 | 11300 nM | 3.1 nM | 1.34 µM·h | O=C(OC1([C@H]2COC[C@@H](CC3CC3)N2S(=O)(=O)c2ccc(Cl)cc2)CC1)N1CCC2(CCN2)CC1
23 | > 30000 nM | 7.4 nM | 0.037 µM·h | O=C1CC2(CCN(C(=O)OC3([C@H]4COC[C@@H](CC5CC5)N4S(=O)(=O)c4ccc(Cl)cc4)CC3)CC2)N1

Source: ChEMBL document CHEMBL1268982, “Design, synthesis, and structure-activity relationship studies of N-arylsulfonyl morpholines as γ-secretase inhibitors” (Bioorg Med Chem Lett, 2010)
